Read-outs that look alike come from different tables or passages of the source.
How the values were obtained:
[1] = Basic analgesic test: adjuvans arthritis pain test on the rat, oral administration; type: in vivo, rat (male OFA); conditions: for ED50: Rattus norvegicus, po, individual component
Method: J. of Pharmacology 31, 207-215 (1975)], e.g. as follows: […] This induces a secondary arthritis of the right hind-paw within the course of the next two or more days. The test for analgesic effectiveness is carried out 16 to 18 days later. A control measurement is carried out 30 minutes prior to administration of the test-substance, by flexing the ankle-joint of the right hind paw three times and recording the number of vocalisations (pain-reaction). […] The confidence limits are determined according to the method of […] Wilcoxon. All tests are carried out blind, employing 5 to 15 animals per test substance.

[2] = Test for synergism: analgesia 3 hours after oral co-administration, adjuvans arthritis pain test on the rat; type: in vivo, rat (male OFA)
Method: In order to establish the presence or absence of synergism the basic analgesic test described above is employed, with analgesia measured three hours after administration of the test substance. Varying proportions of the two test-substance components are used, in fixed dose relationships, based upon the ED50 values previously established for the individual components. The degree of activity is then presented graphically. The test components are administered orally in tragacanth suspension and 5 to 15 animals employed per test run. The two test-components are administered in the following dose relationship: […]
Thus three basic curves may be obtained as shown diagramatically in FIG. 1 in which a curve x represents potentiation (i.e. super-additive synergism), a curve y represents additive synergism and a curve z represents antagonism.

[3] = 1 hour after administration, read-out: ED50 at 1 hour after administration
[4] = 3 hours after administration, read-out: ED50 at 3 hours after administration
[5] = 5 hours after administration, read-out: ED50 at 5 hours after administration

Structure (SMILES)	ED50 [1, 3] [mg/kg]	ED50 [1, 4] [mg/kg]	ED50 [1, 5] [mg/kg]	activity at 6.5 mg/kg ([2]; Rattus norvegicus, po, A 6.5 mg/kg, B 0 p.o. (relative dosage 1 : 0)) [%]	percentage printed in parentheses beside the ED50 at 5 hours (not explained) ([1]; p.o., 5 hours after administration) [%]	% activity ([2]; A 0, B 3.6 mg/kg p.o. (relative dosage 0 : 1)) [%]
Cc1ccc2c(-c3ccc(F)cc3)nc(=O)n(C(C)C)c2c1 [Component A, 1-Isopropyl-4-(4-fluorophenyl)-7-methyl-2(1H)-quinazolinone]	~18	6.5	7	50	–	–
Clc1ccc2nsnc2c1NC1=NCCN1 [Component B, 5-chloro-4-(2-imidazolin-2-ylamino)-2,1,3-benzothiadiazole]	~1.8	3.6	~10	–	-60	50
